# Measured values as given in paper PMC6278829 (Anesthesiology, 2018).
# Target: α1β3γ2L GABAA receptors (β+ – α− sites) (Homo sapiens, UniProt P14867+P18507+P28472)
# Experiment: Inhibition of ^3[H]azi-etomidate photoaffinity labeling of purified receptors
# Type: binding
# Conditions: read-out: IC50 for Inhibiting Photoaffinity Labeling by ^3[H]Azi-etomidate (95% CI); ~2 μM photolabel; 1 mM GABA (open/desensitized state)
# α1β3γ2L GABAA receptors (β+ – α− sites), sequence (P14867 28-456): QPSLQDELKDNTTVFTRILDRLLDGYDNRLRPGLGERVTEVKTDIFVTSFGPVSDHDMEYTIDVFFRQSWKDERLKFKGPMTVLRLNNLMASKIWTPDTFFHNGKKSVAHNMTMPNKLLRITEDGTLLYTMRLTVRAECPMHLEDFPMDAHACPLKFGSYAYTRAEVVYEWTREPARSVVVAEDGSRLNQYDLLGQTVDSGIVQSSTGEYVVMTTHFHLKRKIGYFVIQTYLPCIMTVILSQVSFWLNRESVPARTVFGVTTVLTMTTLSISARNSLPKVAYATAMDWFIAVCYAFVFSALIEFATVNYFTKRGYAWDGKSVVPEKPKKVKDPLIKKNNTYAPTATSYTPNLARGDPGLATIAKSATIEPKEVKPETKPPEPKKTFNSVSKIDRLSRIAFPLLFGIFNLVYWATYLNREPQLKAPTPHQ
# α1β3γ2L GABAA receptors (β+ – α− sites), sequence (P28472 26-473): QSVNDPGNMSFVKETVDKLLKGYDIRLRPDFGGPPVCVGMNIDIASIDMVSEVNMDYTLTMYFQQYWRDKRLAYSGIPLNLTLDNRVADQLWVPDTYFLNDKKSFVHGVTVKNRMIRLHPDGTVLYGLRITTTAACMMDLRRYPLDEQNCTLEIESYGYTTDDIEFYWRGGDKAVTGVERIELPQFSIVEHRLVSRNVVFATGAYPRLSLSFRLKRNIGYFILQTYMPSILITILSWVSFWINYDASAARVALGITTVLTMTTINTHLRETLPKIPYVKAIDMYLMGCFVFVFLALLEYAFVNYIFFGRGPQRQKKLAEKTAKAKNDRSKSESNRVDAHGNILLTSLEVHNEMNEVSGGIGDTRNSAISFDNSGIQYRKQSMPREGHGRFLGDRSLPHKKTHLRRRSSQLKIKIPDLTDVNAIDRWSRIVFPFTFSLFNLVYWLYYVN
# α1β3γ2L GABAA receptors (β+ – α− sites), sequence (P18507 40-475): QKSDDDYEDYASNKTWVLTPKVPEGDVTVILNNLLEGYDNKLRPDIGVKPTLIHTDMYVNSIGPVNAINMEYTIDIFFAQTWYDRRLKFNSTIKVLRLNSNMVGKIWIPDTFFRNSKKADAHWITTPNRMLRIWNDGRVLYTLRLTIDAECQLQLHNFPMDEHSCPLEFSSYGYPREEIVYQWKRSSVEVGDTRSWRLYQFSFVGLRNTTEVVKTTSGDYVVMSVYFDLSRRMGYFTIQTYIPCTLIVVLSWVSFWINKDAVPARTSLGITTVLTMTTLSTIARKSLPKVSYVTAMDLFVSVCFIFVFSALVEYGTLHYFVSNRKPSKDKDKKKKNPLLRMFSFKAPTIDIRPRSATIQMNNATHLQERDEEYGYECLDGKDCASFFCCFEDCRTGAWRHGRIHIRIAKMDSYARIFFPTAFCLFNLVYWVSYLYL
row,Compound,IC50
1,CCOC(=O)c1cncn1[C@H](C)c1ccc(Br)cc1 [p-Bromo-etomidate],8.1 µM
2,CCOC(=O)c1cncn1[C@H](C)c1cccc(OC(C)C)c1 [m-Isopropoxy-etomidate],210 µM
3,CCOC(=O)c1cncn1[C@H](C)c1ccc(OC)cc1 [p-Methoxy-etomidate],75 µM
4,CCOC(=O)c1cncn1[C@H](C)c1ccc(F)cc1 [p-Fluoro-etomidate],3.6 µM
5,m-Dimethoxy-etomidate,830 µM
6,CCOC(=O)c1cncn1C(C)c1ccc2ccccc2c1 (stereo not drawn) [Naphthalene2-etomidate],77 µM

# Tested on: GABAA receptor transmembrane anesthetic binding sites
# Experiment: not given
# Conditions: cited from earlier work
row,Compound,Selectivity of photolabel for its respective class of binding sites
1,C=CC[C@@]1(c2cccc(C3(C(F)(F)F)N=N3)c2)C(=O)NC(=O)N(C)C1=O,more than 50 fold
2,CC(c1ccccc1)n1cncc1C(=O)OCCC1(C)N=N1 (stereo not drawn) [^3[H]azi-etomidate],more than 50 fold

# Target: α1β3γ2L GABAA receptors (Homo sapiens, UniProt P14867+P18507+P28472)
# Sequence (P14867 28-456): as the sequence (P14867 28-456) above
# Sequence (P28472 26-473): as the sequence (P28472 26-473) above
# Sequence (P18507 40-475): as the sequence (P18507 40-475) above
# Experiment: not given
# Type: cell-based
# Conditions: 100 μM drug; wild-type receptors; n = 6 oocytes; EC5 GABA alone 4.4 ± 1.2%; P = 0.002
row,Compound,Peak amplitude of EC5 GABA-evoked current with drug
1,CCOC(=O)c1cncn1C(C)c1cccc2ccccc12 (stereo not drawn) [Naphthalene-etomidate],10 ± 2.4 % of the current produced by 1 mM GABA
